In this experiment the test system is aerobic bacteria. Kind of experiment: total bacterial count test on finished gloves (TSA plates). The note with it: FIG. 5, total bacteria count on prepared articles as a function of CHG concentration in the coagulant. The procedure: In order to determine the effectiveness of the antimicrobial coagulant on a finished article, a total bacterial count test was completed on the article prepared using the above formulas. The following three concentrations were prepared: 0.8% Saline Solution (sodium Chloride), 4% TSA & 6.5% SDA solution, which were subsequently sterilized at 121° C. for 15 minutes. Three gloves made with each formula were cut into two pieces each and were soaked into 60 ml Saline solution and shaken for 10 minutes. After that, 1 ml of the solution and 1 ml of Agar solution (TSA and SDA) were pipetted out into a Petri dish. The Petri dish plates were incubated for 2 days at 30-35° C. for TSA & 4 days at 20-25° C. for SDA. The colonies on each plate was counted and total fungus/aerobic bacteria count per glove was calculated as: Total Aerobic Bacteria Count Per Glove=(Count of TSA plate*60)/3 Total Fungus Count Per Glove=(Count of SDA plate*60)/3 The results of total bacteria count on TSA for above four samples and control sample are listed below.

This is an account of results in patent US10786930B2, “Articles having antimicrobial properties and methods of manufacturing the same” (Medline Industries, Inc., priority 2010, dated 2020).

As for `N=C(NCCCCCCNC(=N)NC(=N)Nc1ccc(Cl)cc1)NC(=N)Nc1ccc(Cl)cc1.O=C(O)[C@H](O)[C@@H](O)[C@H](O)[C@H](O)CO.O=C(O)[C@H](O)[C@@H](O)[C@H](O)[C@H](O)CO` [CHG, chlorhexidine gluconate], the “concentration of CHG up to which total bacteria count decreased (above it the count increased)” value is “approximately 0.02%”.
